The test system of data set [1] is human breast adenocarcinoma line MCF7 (ATCC HTB22). Description: XTT proliferation test, MCF7. The data set is classed as cell-based. On the procedure: (§1) In a proliferation test, the antiproliferative activity of the substance D-69429 was examined using established tumor cell lines. In the test used, the cellular dehydrogenation activity is determined, which makes it possible to determine the vitality of the cell and, indirectly, the cell count. The cell lines used are the human cervical carcinoma cell line KB/HeLa (ATCC CCL17), the murine lymphocyte a leukaemia L1210 (ATCC CCL-219), the human breast adenocarcinoma line MCF7 (ATCC HTB22) and the ovary adenocarcinoma line SKOV-3 (ATCC HTB77). These are established cell lines which are very well characterized and were obtained from ATCC and cultured.
(§2) The adherently growing tumor cell lines HeLa/KB, SKOV-3 and MCF7 and the L1210 leukaemia line, which grows in suspension, were cultivated under standard conditions in an incubator with gas inlet at 37° C., 5% CO2 and 95% atmospheric humidity. […]
(§3) For the XTT assay, 1 mg/ml of XTT (sodium 3′-[1-(phenylaminocarbonyl)-3,4-tetrazolium]-bis(4-methoxy-6-nitro)benzenesulfonic acid) is dissolved in RPMI-1640 medium without Phenol Red. […] The cell plates are then incubated in the incubator with gas inlet for a further 3 h, and the optical density (OD490nm) is determined in a photometer.
(§4) Using the OD490nm obtained, the inhibition in percent relative to the control is calculated. […]
(In general: Tetrazolium assays rely on reduction of a dye to a coloured formazan, in cell work by metabolically active cells.)

Data set [2] concerns ovary adenocarcinoma line SKOV-3 (ATCC HTB77). Briefly: XTT proliferation test, SKOV-3. The following applies: SKOV-3, eight substance concentrations. It is filed as cell-based, human. On the procedure: as §1, §2, §3, §4
The test system of data set [3] is murine lymphocyte leukaemia L1210 (ATCC CCL-219). Description: XTT proliferation test, L1210. The data set is classed as cell-based. The following applies: L-1210, eight substance concentrations. On the procedure:
as §1, §2, §3, §4

In data set [4] the test system is human cervical carcinoma cell line KB/HeLa (ATCC CCL17). Briefly: XTT proliferation test, KB/HeLa. Conditions: eight substance concentrations. It is filed as cell-based. On the procedure: as §1, §2, §3, §4

By inhibition is commonly meant how much of the control response was suppressed. A word on the melting point: it is the temperature, or range, at which the solid turns liquid. `Cc1ccc2cc(NC(=O)C(=O)c3cn(Cc4ccc(Cl)cc4)c4ccccc34)ccc2n1` [Example D-69429, N-(2-methyl-6-quinolyl)-[1-(4-chlorobenzyl)indole-3-yl]glyoxylamide] returned a melting point of 182 to 185 °C. Also, in data set [1] (MCF7, at 3.16 μg/ml, test period 48 h), at 3.16 µg/mL the inhibition was 18%. Also, the IC50 in data set [1] (MCF7, test period 48 h, regression analysis, read-out: antiproliferative activity (stated as >3.16)) was above 3.16 µg/mL. In data set [2], the antiproliferative action entry is given as “highly potent antiproliferative action”. Also, the antiproliferative action entry in data set [3] is recorded as “highly potent antiproliferative action”. In data set [4], the antiproliferative action result was “highly potent antiproliferative action”.

Source of the values: patent US8008324B2, “Indole derivatives and their use as medicament” (AEterna Zentaris GmbH, priority 2000, dated 2011).
